Assay results as given in the NIST ThermoML archive (doi:10.1021/je100832h).

Assays:
[1] = xn = mol fraction of the nth substance listed; conditions: 101.32 kPa, Liquid, Vibrating tube method
[2] = excess molar enthalpy (molar enthalpy of mixing); xn = mol fraction of the nth substance listed; conditions: 291.15 K, 101 kPa, Liquid, Calvet calorimetry

CCOC(C)=O [ethyl acetate] + CCCCCCC
mass density [kg/m3], [1]
Conditions	318.15 K	328.15 K
x1 = 0.0084	–	654.45
x1 = 0.1044	–	665.69
x1 = 0.1911	–	676.99
x1 = 0.2817	–	690.09
x1 = 0.3479	–	700.46
x1 = 0.4184	722.43	–
x1 = 0.423	–	713.16
x1 = 0.4793	733.7	–
x1 = 0.488	–	725.11
x1 = 0.528	743.25	–
x1 = 0.5492	–	737.13
x1 = 0.5785	753.7	–
x1 = 0.621	–	752.34
x1 = 0.6277	764.5	–
x1 = 0.6655	–	762.36
x1 = 0.6774	775.92	–
x1 = 0.7209	–	775.45
x1 = 0.7248	787.48	–
x1 = 0.7652	797.95	–
x1 = 0.7755	–	789.39
x1 = 0.7914	804.97	–
x1 = 0.8274	–	803.37
x1 = 0.8486	821.19	–
x1 = 0.8717	–	815.94
x1 = 0.9067	838.76	–
x1 = 0.9217	–	831.14
x1 = 0.9554	854.25	–
x1 = 0.9731	–	847.9
x1 = 1	869.6	857.17

[2]
Conditions	excess molar enthalpy [kcal/mol]
x1 = 0.0704	0.107
x1 = 0.1554	0.198
x1 = 0.2363	0.272
x1 = 0.3039	0.323
x1 = 0.3738	0.358
x1 = 0.4354	0.375
x1 = 0.4887	0.379
x1 = 0.5306	0.376
x1 = 0.5794	0.367
x1 = 0.6196	0.355
x1 = 0.6682	0.335
x1 = 0.7293	0.299
x1 = 0.7913	0.256
x1 = 0.8405	0.204
x1 = 0.9015	0.137
x1 = 0.9556	0.0667
